In patent publication US11124485B2, “Deoxyuridine triphosphatase inhibitors containing cyclopropano linkage” (CV6 Therapeutics (NI) Limited, priority 2015, dated 2021) one finds colonies formed and growth inhibition data, which are given here for two compounds.

The subject of assay [1] is colorectal (HCT116), breast (MCF-7) and non-small cell lung (H1299, A549, H358 and H460) cell line models. Briefly: Colony forming assay. The note with it: increasing concentrations of FUdR between 0.5 and 2.5 μmol/L; all cell lines evaluated. The class given is cell-based. The procedure:
Colony forming assay showing the ability of colon (SW620, HCT116), non-small cell lung (A549, H460, H1299 and H358) and breast (MCF7) cancer cells to survive and proliferate following transient 24 hour exposure to test compounds, FUdR and combinations are determined. Specifically, cells are seeded at densities between 50 and 100 cells/well in 24-well plates. Twenty-four hours later, cells are treated with increasing concentrations of a test compound, a fixed dose of FUdR and combinations of these. After 24 hours, drug is removed, cells are rinsed and allowed to outgrow for 10-14 days. At the conclusion of the outgrowth, cells are fixed in 60% ice cold methanol and stained with 0.1% crystal violet, scanned and counted. Data is presented as percentage of untreated controls (mean±SD). Fraction affected and combination indexes are calculated according to the method of Chou and Talalay where <1 is indicative of a synergistic drug interaction.
Colony forming assays are performed to evaluate the effectiveness of test compounds alone and in combination with the fluoropyrimidine thymidylate synthase (TS) inhibitor fluorodeoxyuridine (FUdR) at reducing cancer cell viability in colorectal (HCT116), breast (MCF-7) and non-small cell lung (H1299, A549, H358 and H460) cell line models. […]

Assay [2] concerns colorectal (HCT116 and SW620) cell line models. Briefly: MTS growth inhibition assay. The class given is cell-based. The following applies: increasing concentrations of 5-FU between 0 and 100 μmol/L; both colorectal cancer cell lines. How it is done:
The Cell Titer AQueous MTS assay (Promega) is carried out according to the manufacturers guidelines. […] The combination effect is determined by the combination index (CI) method utilizing Calcusyn software (Biosoft, Ferguson, Mo.). Fraction affected (FA) is calculated from the percent growth inhibition: FA=(100−% growth inhibition)/100.
Test compounds are evaluated for their antitumor activity in colorectal cancer cells using the MTS growth inhibition assay. HCT116 and SW620 cells are exposed to increasing concentrations of each agent for 72 hours and growth inhibition is directly compared to vehicle-treated controls. The NSCLC cell lines A549 and H1299 are exposed to increasing concentrations of each agent for 72 hours and growth inhibition is directly compared to vehicle-treated controls.
MTS growth inhibition assays are performed to evaluate the effectiveness of the test compounds alone and in combination with the fluoropyrimidine thymidylate synthase (TS) inhibitor 5-fluorouracil (5-FU) at inhibiting the growth of colorectal (HCT116 and SW620) cell line models. […] Simultaneous treatment with increasing concentrations of 5-FU and a test compound at fixed concentrations of 25 μmol/L is determined.
For orientation: Tetrazolium dyes change colour on reduction, which living cells bring about.

Regarding `O=c1[nH]c(=O)n([C@H]2C[C@H](O)[C@@H](CO)O2)cc1F` [FUdR, fluorodeoxyuridine], the colonies formed result in assay [1] was “dose-dependent decreases in colonies formed”.
With `O=c1[nH]cc(F)c(=O)[nH]1` [Compound 5-FU, 5-fluorouracil], the growth inhibition entry in assay [2] is listed as “dose-dependent increases in growth inhibition”.
